Results from patent publication US8022102B2, “Unsaturated tetracyclic tetrahydrofuran derivatives” (Janssen Pharmaceutica, NV, priority 2004, dated 2011).
Where two headings read alike, the source gives them in different places.

Tests used:
[1] = target: T1, human cloned 5-HT2A receptor (Homo sapiens, UniProt P28223); assay: In vitro binding affinity for 5-HT2A receptor (radioligand binding); conditions: read-out: h-5HT2A (converted)
T1 construct: expressed in transfected cells; host or cells: L929 cells
Method: During the incubation, the radioligands bind to the receptor. When equilibrium of binding is reached, the receptor bound radioactivity is separated from the non-bound radioactivity, and the receptor bound activity is counted. The interaction of the test compounds with the receptors is assessed in competition binding experiments. Various concentrations of the test compound are added to the incubation mixture containing the tissue preparation and the radioligand. Binding of the radioligand will be inhibited by the test compound in proportion to its binding affinity and its concentration. The affinities of the compounds for the 5-HT2 receptors were measured by means of radioligand binding studies conducted with: (a) human cloned 5-HT2A receptor, expressed in L929 cells using [^125I]R91150 as radioligand and (b) human cloned 5-HT2C receptor, expressed in CHO cells using [^3H]mesulergine as radioligand.

[2] = target: T2, human cloned 5-HT2C receptor (Homo sapiens, UniProt P28335); assay: In vitro binding affinity for 5-HT2C receptor (radioligand binding); conditions: read-out: h-5HT2C (converted)
T2 construct: expressed in transfected cells; host or cells: CHO cells
T2 sequence (P28335 33-458): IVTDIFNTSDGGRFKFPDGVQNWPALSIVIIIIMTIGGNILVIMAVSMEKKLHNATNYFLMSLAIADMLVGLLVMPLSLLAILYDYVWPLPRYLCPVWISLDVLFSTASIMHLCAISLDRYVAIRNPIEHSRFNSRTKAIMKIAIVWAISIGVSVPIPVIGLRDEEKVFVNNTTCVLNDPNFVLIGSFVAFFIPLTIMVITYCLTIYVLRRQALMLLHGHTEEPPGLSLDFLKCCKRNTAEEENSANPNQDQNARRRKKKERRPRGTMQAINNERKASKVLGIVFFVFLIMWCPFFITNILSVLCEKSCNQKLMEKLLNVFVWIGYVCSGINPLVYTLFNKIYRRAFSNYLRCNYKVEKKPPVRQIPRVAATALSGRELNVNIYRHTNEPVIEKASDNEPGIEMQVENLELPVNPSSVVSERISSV
Method: During the incubation, the radioligands bind to the receptor. When equilibrium of binding is reached, the receptor bound radioactivity is separated from the non-bound radioactivity, and the receptor bound activity is counted. The interaction of the test compounds with the receptors is assessed in competition binding experiments. Various concentrations of the test compound are added to the incubation mixture containing the tissue preparation and the radioligand. Binding of the radioligand will be inhibited by the test compound in proportion to its binding affinity and its concentration.

NET = target: T3, NET (Rattus norvegicus, UniProt Q9WTR4); assay: In vitro determination of NET reuptake inhibition ([3H]Nixosetine binding, rat brain cortex); conditions: rat brain cortex, [3H]Nixosetine; read-out: NET Reuptake Inhibition (converted)
T3 construct: Cortex from rat brain was collected and homogenised; from tissue; host or cells: rat brain cortex
Method: Cortex from rat brain was collected and homogenised using an Ultra-Turrax T25 and a Dual homogeniser in ice-cold homogenising buffer containing Tris, NaCl and KCl (50 mM, 120 mM and 5 mM, respectively, pH 7.4) prior to dilution to an appropriate protein concentration optimised for specific and non-specific binding. […] Membrane-bound activity was detected by filtration through a Packard Filtermate harvester onto GF/B Unifilterplates, washed with ice-cold Tris-HCl buffer, containing NaCl and KCl (50 mM, 120 mM and 4 mM; pH 7.4; 6×0.5 ml). Filters were allowed to dry for 24 h before adding scintillation fluid. Scintillation fluid was allowed to saturate filters for 24 h before counting in a Topcount scintillation counter. Percentage specific bound and competition binding curves were calculated using S-Plus software (Insightful).

[3] = target: T4, human Dopamine D2L receptor (Homo sapiens, UniProt P14416); assay: In vitro binding affinity for human D2L receptor ([3H]Spiperone); conditions: human D2L receptor-transfected CHO cell membranes, [3H]Spiperone; read-out: h-D2L (converted)
T4 construct: expressed in transfected cells; host or cells: CHO cells
Method: Frozen membranes of human Dopamine D2L receptor-transfected CHO cells were thawed, briefly homogenised using an Ultra-Turrax T25 homogeniser and diluted in Tris-HCl assay buffer containing NaCl, CaCl2, MgCl2, KCl (50, 120, 2, 1, and 5 mM respectively, adjusted to pH 7.7 with HCl) to an appropriate protein concentration optimised for specific and non-specific binding. Radioligand [^3H]Spiperone (NEN, specific activity ˜70 Ci/mmol) was diluted in assay buffer at a concentration of 2 nmol/L. Prepared radioligand (50 μl), along with 50 μl of either the 10% DMSO control, Butaclamol (10^−6 mol/l final concentration), or compound of interest, was then incubated (30 min, 37° C.) with 400 μl of the prepared membrane solution. Membrane-bound activity was filtered through a Packard Filtermate harvester onto GF/B Unifilterplates and washed with ice-cold Tris-HCl buffer (50 mM; pH 7.7; 6×0.5 ml). Filters were allowed to dry before adding scintillation fluid and counting in a Topcount scintillation counter. Percentage specific bound and competition binding curves were calculated using S-Plus software (Insightful).

[4] = human cloned 5-HT2A receptor, radioligand binding
[5] = human cloned 5-HT2C receptor, radioligand binding

T3 sequence (Q9WTR4 1-597): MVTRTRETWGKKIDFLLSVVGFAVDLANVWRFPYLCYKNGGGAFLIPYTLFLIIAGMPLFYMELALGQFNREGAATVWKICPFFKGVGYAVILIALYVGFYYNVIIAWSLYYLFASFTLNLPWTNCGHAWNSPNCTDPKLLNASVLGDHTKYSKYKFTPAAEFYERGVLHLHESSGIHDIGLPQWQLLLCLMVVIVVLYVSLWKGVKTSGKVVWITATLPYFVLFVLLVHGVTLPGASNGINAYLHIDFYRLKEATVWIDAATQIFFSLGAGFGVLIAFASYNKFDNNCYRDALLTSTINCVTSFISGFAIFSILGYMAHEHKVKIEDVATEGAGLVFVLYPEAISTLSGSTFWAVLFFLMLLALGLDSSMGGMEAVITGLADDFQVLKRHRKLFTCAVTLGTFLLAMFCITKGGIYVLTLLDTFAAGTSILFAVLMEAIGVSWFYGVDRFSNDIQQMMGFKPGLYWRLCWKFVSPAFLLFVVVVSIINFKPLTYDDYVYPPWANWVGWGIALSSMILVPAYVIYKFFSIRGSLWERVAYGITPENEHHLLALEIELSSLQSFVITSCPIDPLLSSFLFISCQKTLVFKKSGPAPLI
T1 sequence (P28223 whole entry): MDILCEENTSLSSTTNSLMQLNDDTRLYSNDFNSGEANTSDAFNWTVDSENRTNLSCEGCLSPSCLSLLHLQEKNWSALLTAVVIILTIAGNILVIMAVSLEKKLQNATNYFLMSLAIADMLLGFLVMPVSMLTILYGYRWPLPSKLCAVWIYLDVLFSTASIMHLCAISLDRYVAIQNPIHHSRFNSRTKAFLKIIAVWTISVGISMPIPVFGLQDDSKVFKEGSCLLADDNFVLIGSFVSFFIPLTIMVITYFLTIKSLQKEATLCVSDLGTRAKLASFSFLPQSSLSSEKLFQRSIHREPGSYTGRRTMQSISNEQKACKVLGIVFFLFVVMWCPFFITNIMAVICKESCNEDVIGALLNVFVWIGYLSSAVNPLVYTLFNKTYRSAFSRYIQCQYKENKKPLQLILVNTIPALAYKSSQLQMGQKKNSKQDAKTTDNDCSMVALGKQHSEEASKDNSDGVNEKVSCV
T4 sequence (P14416 whole entry): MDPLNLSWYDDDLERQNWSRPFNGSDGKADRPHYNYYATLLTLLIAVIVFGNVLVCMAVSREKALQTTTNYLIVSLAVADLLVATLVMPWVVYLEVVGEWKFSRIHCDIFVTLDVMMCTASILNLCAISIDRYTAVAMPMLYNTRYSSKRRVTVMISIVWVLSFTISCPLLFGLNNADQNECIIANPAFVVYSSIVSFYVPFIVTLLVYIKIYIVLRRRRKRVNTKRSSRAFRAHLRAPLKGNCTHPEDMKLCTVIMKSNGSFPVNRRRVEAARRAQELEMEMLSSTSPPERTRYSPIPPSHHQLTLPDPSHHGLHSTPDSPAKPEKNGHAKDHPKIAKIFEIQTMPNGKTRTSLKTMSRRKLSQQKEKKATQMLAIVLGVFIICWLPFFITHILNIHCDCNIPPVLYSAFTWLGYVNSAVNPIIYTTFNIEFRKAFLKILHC

| SMILES | IC50 [1, 4] [nM] | IC50 [2, 5] [nM] | IC50 (NET) [nM] | IC50 [3] [nM] | IC50 ([1]; human cloned 5-HT2A receptor expressed in L929 cells, [125I]R91150) [nM] | IC50 ([2]; human cloned 5-HT2C receptor expressed in CHO cells, [3H]mesulergine) [nM] |
| --- | --- | --- | --- | --- | --- | --- |
| CNC[C@@H]1CC2=C(O1)c1ccccc1[C@@H](C)c1ccccc12 (racemic) [Compound 9] | 100 | 50.1 | 79.4 | 3980 | – | – |
| CCNCC1CC2=C(O1)c1cc(F)ccc1Cc1ccccc12 (single isomer, unassigned) [Compound 15] | – | 0.794 | 3.16 | 39.8 | – | – |
| CCNCC1CC2=C(O1)c1cc(F)ccc1Cc1ccccc12 (single isomer, unassigned) [Compound 16] | – | 12.6 | 158 | 316 | – | – |
| CNCC1CC2=C(O1)c1cc(F)ccc1Cc1ccccc12 (centres unmarked) [Compound 2] | 0.631 | 1 | 15.8 | 79.4 | – | – |
| CNC[C@H]1CC2=C(O1)c1cc(F)ccc1Cc1ccccc12 [Compound 3] | 6.31 | 6.31 | 15.8 | 398 | – | – |
| CNC[C@@H]1CC2=C(O1)c1cc(F)ccc1Cc1ccccc12 [Compound 4] | 0.501 | 0.631 | 10 | 63.1 | 0.501 | 0.631 |
| CNCC1CC2=C(O1)c1ccccc1C(C)c1ccccc12 (centres unmarked) [Compound 7] | 50.1 | 20 | 63.1 | 2000 | – | – |
| CNCC1CC2=C(O1)c1ccccc1C(C)c1ccccc12 (centres unmarked) [Compound 10] | – | 25.1 | 50.1 | 1580 | – | – |
| C=C1c2ccccc2C2=C(OC(CNC)C2)c2ccccc21 (centres unmarked) [Compound 11] | 39.8 | 20 | 25.1 | 1580 | – | – |
| CNCC1CC2=C(O1)c1cc(F)ccc1Oc1ccccc12 (centres unmarked) [Compound 12] | 12.6 | 7.94 | 39.8 | 200 | – | – |
| CCNCC1CC2=C(O1)c1cc(Br)ccc1Cc1ccccc12 (centres unmarked) [Compound 17] | – | 1.26 | 100 | 25.1 | – | – |
| OCCNCC1CC2=C(O1)c1cc(Br)ccc1Cc1ccccc12 (centres unmarked) [Compound 20] | – | 1.58 | 501 | 31.6 | – | – |
| CN(C)CC1CC2=C(O1)c1cc(Br)ccc1Cc1ccccc12 (centres unmarked) [Compound 21] | – | 0.794 | 251 | 15.8 | – | – |
| CN(C)CC1CC2=C(O1)c1ccccc1N(C)c1ccccc12 (centres unmarked) [Compound 29] | 316 | 126 | 79.4 | 6310 | – | – |
| CN(C)C1CCN(CC2CC3=C(O2)c2cc(F)ccc2Cc2ccccc23)C1 (centres unmarked) [Compound 35] | – | 15.8 | > 10000 | 39.8 | – | – |
| Fc1ccc2c(c1)C1=C(CC(CN3CCC4(CC3)OCCO4)O1)c1ccccc1C2 (centres unmarked) [Compound 39] | – | 50.1 | > 10000 | 50.1 | – | – |
| Fc1ccc2c(c1)C1=C(CC(CN3CCOCC3)O1)c1ccccc1C2 (centres unmarked) [Compound 43] | – | 20 | 1580 | 79.4 | – | – |
| CS(=O)(=O)N1CCN(CC2CC3=C(O2)c2cc(F)ccc2Cc2ccccc23)CC1 (centres unmarked) [Compound 44] | – | 50.1 | > 10000 | 158 | – | – |
| CCS(=O)(=O)N1CCN(CC2CC3=C(O2)c2cc(F)ccc2Cc2ccccc23)CC1 (centres unmarked) [Compound 46] | – | 200 | > 10000 | 501 | – | – |

| SMILES | IC50 [1, 4] [nM] | IC50 [2, 5] [nM] | IC50 (NET) [nM] | IC50 [3] [nM] | IC50 ([1]; human cloned 5-HT2A receptor expressed in L929 cells, [125I]R91150) [nM] | IC50 ([2]; human cloned 5-HT2C receptor expressed in CHO cells, [3H]mesulergine) [nM] |
| --- | --- | --- | --- | --- | --- | --- |
| CCS(=O)(=O)N1CCN(CC2CC3=C(O2)c2cc(F)ccc2Oc2ccccc23)CC1 (centres unmarked) [Compound 47] | 158 | 200 | 398 | 1260 | – | – |
| O=C(C1CC1)N1CCN(CC2CC3=C(O2)c2cc(F)ccc2Oc2ccccc23)CC1 (centres unmarked) [Compound 58] | – | 158 | 1580 | 1580 | – | – |
| COC(=O)CC(=O)N1CCN(CC2CC3=C(O2)c2cc(F)ccc2Oc2ccccc23)CC1 (centres unmarked) [Compound 60] | – | 79.4 | 1580 | 2000 | – | – |
| O=C(Nc1ccccc1)N1CCN(CC2CC3=C(O2)c2cc(F)ccc2Oc2ccccc23)CC1 (centres unmarked) [Compound 84] | 31.6 | 50.1 | – | 1000 | – | – |
| O=C(Nc1ccc(F)cc1)N1CCN(CC2CC3=C(O2)c2cc(F)ccc2Oc2ccccc23)CC1 (centres unmarked) [Compound 86] | – | 39.8 | > 10000 | 251 | – | – |
| COc1ccc(NC(=O)N2CCN(CC3CC4=C(O3)c3cc(F)ccc3Cc3ccccc34)CC2)cc1 (centres unmarked) [Compound 89] | 2 | 3.16 | – | 39.8 | – | – |
| COc1ccc(NC(=O)N2CCN(CC3CC4=C(O3)c3cc(F)ccc3Oc3ccccc34)CC2)cc1 (centres unmarked) [Compound 90] | 6.31 | 31.6 | – | 501 | – | – |
| COc1ccccc1NC[C@@H]1CC2=C(O1)c1cc(F)ccc1Cc1ccccc12 [Compound 106] | 6.31 | 31.6 | – | > 10000 | – | – |
| COC(=O)CC(=O)N(C)C[C@H]1CC2=C(O1)c1cc(F)ccc1Cc1ccccc12 [Compound 112] | 200 | 63.1 | 7940 | – | – | – |
| CN(CC(=O)c1ccccc1)C[C@H]1CC2=C(O1)c1cc(F)ccc1Cc1ccccc12 [Compound 114] | 3.16 | 1.58 | – | 794 | – | – |
| CN(CC(N)=O)C[C@H]1CC2=C(O1)c1cc(F)ccc1Cc1ccccc12 [Compound 115] | 10 | 3.98 | – | 1260 | – | – |
| CN(CC(=O)N(C)C)C[C@H]1CC2=C(O1)c1cc(F)ccc1Cc1ccccc12 [Compound 117] | 10 | 2 | – | 2510 | – | – |
| CN(CC(=O)Nc1ccccc1)C[C@H]1CC2=C(O1)c1cc(F)ccc1Cc1ccccc12 [Compound 118] | 50.1 | 10 | – | 794 | – | – |
| COc1ccccc1NC(=O)CN(C)C[C@H]1CC2=C(O1)c1cc(F)ccc1Cc1ccccc12 [Compound 119] | 31.6 | 25.1 | – | 7940 | – | – |
| CNC(=O)/C=C/CN(C)C[C@H]1CC2=C(O1)c1cc(F)ccc1Cc1ccccc12 [Compound 123] | 2 | 2 | – | 50.1 | – | – |
| CN(Cc1nnn[nH]1)C[C@H]1CC2=C(O1)c1cc(F)ccc1Cc1ccccc12 [Compound 125] | 3.16 | 2.51 | – | 1260 | – | – |
| CNCC1CC2=C(O1)c1ccccc1Cc1cccc(F)c12 (centres unmarked) [Compound 132] | 10 | 3.98 | 63.1 | – | – | – |
| CNCC1CC2=C(O1)c1ccccc1Cc1ccc(C#N)cc12 (centres unmarked) [Compound 133] | 25.1 | – | 316 | 2040 | – | – |
| CNC(=N)CN(C)CC1CC2=C(O1)c1cc(F)ccc1Cc1ccccc12 (centres unmarked) [Compound 138] | 12.6 | 6.31 | – | 3160 | – | – |
